Data on one compound can be found in BindingDB's records for doi:10.1124/jpet.105.086363 (Wyeth, 2005).

Experiment [1] has as its target T1, Alpha-1A adrenergic receptor (Rattus norvegicus, UniProt P43140).
T1 sequence (P43140 whole entry): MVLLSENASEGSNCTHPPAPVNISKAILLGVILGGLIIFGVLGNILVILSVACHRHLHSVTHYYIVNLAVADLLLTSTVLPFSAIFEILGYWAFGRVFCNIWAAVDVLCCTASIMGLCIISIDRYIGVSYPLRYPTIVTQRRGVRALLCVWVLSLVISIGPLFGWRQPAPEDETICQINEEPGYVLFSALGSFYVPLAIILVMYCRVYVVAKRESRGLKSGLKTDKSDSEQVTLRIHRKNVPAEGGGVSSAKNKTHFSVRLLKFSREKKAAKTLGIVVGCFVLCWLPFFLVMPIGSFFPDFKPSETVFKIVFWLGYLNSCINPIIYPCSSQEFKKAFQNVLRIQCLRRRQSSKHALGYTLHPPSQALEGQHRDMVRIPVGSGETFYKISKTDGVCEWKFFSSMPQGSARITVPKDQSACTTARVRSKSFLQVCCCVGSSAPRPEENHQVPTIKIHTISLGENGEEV

Another experiment deals with D(2) dopamine receptor (Homo sapiens, UniProt P14416).
Chain of D(2) dopamine receptor (P14416 whole entry): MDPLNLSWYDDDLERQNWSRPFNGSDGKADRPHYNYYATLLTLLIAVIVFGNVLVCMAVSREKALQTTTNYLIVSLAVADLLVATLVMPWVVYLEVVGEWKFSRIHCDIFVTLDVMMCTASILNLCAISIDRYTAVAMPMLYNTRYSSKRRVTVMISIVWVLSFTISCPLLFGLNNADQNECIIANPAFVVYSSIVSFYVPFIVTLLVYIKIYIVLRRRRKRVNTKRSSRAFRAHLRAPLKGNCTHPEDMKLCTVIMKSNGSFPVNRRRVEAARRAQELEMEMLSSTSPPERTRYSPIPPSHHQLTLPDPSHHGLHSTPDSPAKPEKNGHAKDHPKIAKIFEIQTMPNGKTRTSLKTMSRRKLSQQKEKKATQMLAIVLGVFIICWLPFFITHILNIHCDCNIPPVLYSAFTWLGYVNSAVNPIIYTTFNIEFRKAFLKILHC
Another experiment addresses D(3) dopamine receptor (Homo sapiens, UniProt P35462).
Experiment [2] concerns the target T2, 5-hydroxytryptamine receptor 1A (Homo sapiens, UniProt P08908).
T2 sequence (P08908 whole entry): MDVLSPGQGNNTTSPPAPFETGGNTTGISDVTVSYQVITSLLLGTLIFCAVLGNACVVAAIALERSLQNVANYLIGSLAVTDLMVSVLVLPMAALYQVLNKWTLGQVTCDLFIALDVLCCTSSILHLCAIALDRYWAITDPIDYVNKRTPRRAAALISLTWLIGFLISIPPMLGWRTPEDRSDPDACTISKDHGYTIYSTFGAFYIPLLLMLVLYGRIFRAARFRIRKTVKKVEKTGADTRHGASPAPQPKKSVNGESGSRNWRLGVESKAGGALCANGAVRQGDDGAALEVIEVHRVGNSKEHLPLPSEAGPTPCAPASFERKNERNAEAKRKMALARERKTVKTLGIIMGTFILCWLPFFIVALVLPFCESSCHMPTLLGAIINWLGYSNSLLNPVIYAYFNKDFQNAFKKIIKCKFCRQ

The target of the next experiment is T3, D(4) dopamine receptor (Homo sapiens, UniProt P21917).
T3 sequence (P21917 whole entry): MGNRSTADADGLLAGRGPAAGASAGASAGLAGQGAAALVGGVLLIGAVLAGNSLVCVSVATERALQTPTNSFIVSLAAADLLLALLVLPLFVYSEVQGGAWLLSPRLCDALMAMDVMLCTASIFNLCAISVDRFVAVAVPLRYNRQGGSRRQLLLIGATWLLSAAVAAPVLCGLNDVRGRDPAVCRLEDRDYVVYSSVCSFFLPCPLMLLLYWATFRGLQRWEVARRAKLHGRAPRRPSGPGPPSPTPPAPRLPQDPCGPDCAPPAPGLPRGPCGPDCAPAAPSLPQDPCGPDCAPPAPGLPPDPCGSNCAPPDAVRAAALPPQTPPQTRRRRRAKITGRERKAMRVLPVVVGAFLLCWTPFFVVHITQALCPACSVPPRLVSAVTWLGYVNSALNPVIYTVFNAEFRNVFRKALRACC

Chain of D(3) dopamine receptor (P35462 as listed by the source): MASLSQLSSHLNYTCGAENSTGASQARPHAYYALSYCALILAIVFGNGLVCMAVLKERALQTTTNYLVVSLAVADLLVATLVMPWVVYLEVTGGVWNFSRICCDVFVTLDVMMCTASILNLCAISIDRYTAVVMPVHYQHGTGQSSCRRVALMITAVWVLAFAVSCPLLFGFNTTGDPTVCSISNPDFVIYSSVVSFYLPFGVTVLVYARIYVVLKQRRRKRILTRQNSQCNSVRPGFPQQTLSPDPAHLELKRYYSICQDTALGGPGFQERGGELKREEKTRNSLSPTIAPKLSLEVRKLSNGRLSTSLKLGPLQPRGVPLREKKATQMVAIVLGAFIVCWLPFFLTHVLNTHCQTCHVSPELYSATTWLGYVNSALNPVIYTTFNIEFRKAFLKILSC

As to `C[C@H](CN(C(=O)c1ccc(C#N)cc1)c1ccccn1)N1CCN(c2cccc3c2OCCO3)CC1`, the Ki in experiment [1] is 0.248 µM; on D(2) dopamine receptor, 1.55 µM; at D(3) dopamine receptor, 0.32 µM; in experiment [2] it was 0.0045 µM; on D(4) dopamine receptor, 0.098 µM.
